According to the OPERA property sets (Mansouri et al. 2018):
In brackets after ≈: the same amount, converted by molar mass.

## CC(Oc1ccc(Oc2ncc(Cl)cc2Cl)cc1)C(=O)N1CCCO1 (configuration not stated)
  logP: 3.36
25 °C
  solubility: 25.6 µM (≈ 9.8 µg/mL)

## O=C(O)CCCOc1ccc(Cl)cc1Cl
25 °C
  solubility: 213 µM (≈ 53 µg/mL)

## O=C(O)COc1ccc(Cl)cc1CO
  solubility: 9230 µM (≈ 2000 µg/mL)

## CCCCC(CC)CN1C(=O)C2C3C=CC(C3)C2C1=O (configuration not stated)
  logP: 3.7

## CC(C)(N=C(O)C(Br)C(C)(C)C)c1ccccc1 (configuration not stated)
25 °C
  solubility: 11.3 µM (≈ 3.54 µg/mL)

## CCCCN(CC)C(=O)SCCC
  logP: 3.83

## O=C(OCc1ccccc1)c1sc(Cl)nc1C(F)(F)F
25 °C
  solubility: 1.55 µM (≈ 0.5 µg/mL)

## CCOC(=O)c1cn2nc(OP(=S)(OCC)OCC)cc2nc1C
  logP: 3.8

## CCn1cc(C(=O)O)c(=O)c2cc3c(cc21)OCO3
25 °C
  solubility: 12.2 µM (≈ 3.2 µg/mL)

## CN(C)C(=O)C(c1ccccc1)c1ccccc1
27 °C
  solubility: 1090 µM (≈ 260 µg/mL)

## C=CCNC(=O)CN(CC=C)C(=O)C(Cl)Cl
  logP: 1
20 °C
  solubility: 91300 µM (≈ 24200 µg/mL)

## CCCCCOC(=O)COc1cc(N2C(=O)C3=C(CCCC3)C2=O)c(F)cc1Cl
  logP: 4.99
25 °C
  solubility: 0.446 µM (≈ 0.189 µg/mL)

## CCOc1cc(Oc2ccc(C(F)(F)F)cc2Cl)ccc1[N+](=O)[O-]
25 °C
  solubility: 0.298 µM (≈ 0.108 µg/mL)

## CCCCCCCCSCCO
  logP: 3.64
